From PubChem BioAssay (NCI)
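Values below derive from 48-hour exposures of cells grown in 96-well plates, with endpoints linearly interpolated between the two concentrations bracketing the appropriate inhibition level. TGI: total growth inhibition.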

What was measured:
Experiment in all cases: DTP human tumour cell line panel, 48 h
A549 NSCLC = system: A549 NSCLC
MALME-3M melanoma = system: MALME-3M melanoma
786-0 renal = system: 786-0 renal
UO-31 renal = system: UO-31 renal
OVCAR-5 ovarian = system: OVCAR-5 ovarian
ACHN renal = system: ACHN renal
RPMI-8226 leukemia = system: RPMI-8226 leukemia
NCI-H226 lung = system: NCI-H226 lung
TK-10 renal = system: TK-10 renal
UACC-257 melanoma = system: UACC-257 melanoma
T-47D breast = system: T-47D breast
KM12 colon = system: KM12 colon
CAKI-1 renal = system: CAKI-1 renal

SMILES	TGI (A549 NSCLC) [µM]	TGI (MALME-3M melanoma) [µM]	TGI (786-0 renal) [µM]	TGI (UO-31 renal) [µM]	TGI (OVCAR-5 ovarian) [µM]	TGI (ACHN renal) [µM]	TGI (RPMI-8226 leukemia) [µM]	TGI (NCI-H226 lung) [µM]	TGI (TK-10 renal) [µM]	TGI (UACC-257 melanoma) [µM]	TGI (T-47D breast) [µM]	TGI (KM12 colon) [µM]	TGI (CAKI-1 renal) [µM]
COC(=O)CC[N+]1([O-])CC1	> 100	> 100	> 100	> 100	> 100	> 100	> 100	> 100	> 100	> 100	> 100	> 100	–
CC(=O)N1c2ccccc2C2=NN=C(N(C)C)SC21 (centres undefined)	11.8	12.9	12.5	9.89	18.1	10.4	81.3	19.5	21	12.7	14.9	11.2	–
CC1=CC(=C(c2ccc(N)c(C)c2)c2ccc(N)c(C)c2)C=CC1=N	28.6	11.2	21.1	84.9	> 84.4	69.2	29.6	33.6	> 66.2	15.7	–	12.8	62.4
COc1cc2c(cc1C)NC(=O)/C2=C\c1cccnc1	71.7	30.2	> 100	39.5	31.8	> 100	55.5	–	31.7	28.4	11.7	35.6	36.2
CCOC(=O)/C(=C\NC[C@@H](C)O)c1nc2ccccc2[nH]1	> 100	> 100	> 100	4.02	> 100	90.4	63.3	–	> 100	> 100	–	> 100	> 100
CC[N+](C)(C)c1ccc(C(=C2C=CC(=[N+](C)C)C=C2)c2ccc(N(C)C)cc2)cc1	> 100	66.3	29	70.1	> 100	62.1	7.36	52.8	97.6	28.6	–	17.5	> 100
C=CCN1C(=O)/C(=C/c2ccccc2)N=C1SC/C=C/C	> 100	–	> 100	> 100	–	> 100	49	> 100	> 100	74.5	> 100	> 100	> 100
Nc1ccc2c(c1)N(C(=O)CCCC(=O)N1CC(CCl)c3ccc(N)cc31)CC2CCl (centres undefined)	> 50	0.451	> 29.7	2.74	> 41.3	> 41	> 10.2	> 50	> 48.1	> 50	–	3.99	–
CCOC(=O)c1csc(NC(=O)CN2CCCCC2)n1	> 100	–	–	> 100	> 100	> 100	> 100	–	> 100	> 100	> 100	> 100	> 100
COC(=O)CC(SCCO)SCCO	> 100	> 100	> 100	> 100	> 100	> 100	> 100	> 100	> 100	> 100	–	> 100	> 100
CCOC(=O)N(C)CCC1CC=CC(=O)C1c1cccc(OC)c1OC (centres undefined)	91	60.1	45.7	35.9	46.7	> 100	46.6	–	65.3	39.3	77.1	33.6	91.6
COc1ccc2c(c1)nc1n2C(c2c(F)cccc2F)SC1 (centres undefined)	> 100	–	> 100	> 100	> 100	> 100	> 100	> 100	> 100	> 100	> 100	> 100	> 100
C(=C\c1ccccc1)/Cn1nc(-c2ccccc2)nc1-c1cnccn1	> 100	–	> 100	> 100	> 100	–	> 100	–	> 100	> 100	> 100	–	–
N#Cc1cccc(Nc2ccccc2SSc2ccccc2Nc2cccc(C#N)c2)c1	> 21.5	15.8	12	–	> 21.5	> 21.5	11.5	18.3	> 21.5	> 21.5	> 21.5	16.2	–
COc1ccc(-c2c(C#N)c(N)n(C3OCC(O)C(O)C3O)c(=S)c2C#N)cc1 (centres undefined)	> 100	> 100	> 100	> 100	> 100	> 100	> 100	> 100	> 100	–	> 100	> 100	> 100
COc1cccc2c1C(=O)c1c(O)c3c(c(O)c1C2=O)CC(O)(C(C)=O)CC3OC1CC([N+](C)(C)C)C(O)C(C)O1 (centres undefined)	> 100	> 100	> 100	> 100	> 100	> 100	> 100	> 100	> 100	> 100	–	> 100	> 100
O=S(=O)(O)c1cc(S(=O)(=O)O)c2c(N=Nc3ccccc3)c(O)ccc2c1	> 100	–	> 100	> 100	> 100	–	> 100	> 100	> 100	> 100	> 100	> 100	> 100
O=c1ccc(-c2ccc(-n3ccnc3)cc2)nn1CCO	> 100	> 100	> 100	> 100	> 100	> 100	> 100	–	> 100	> 100	–	> 100	> 100
